What follows are compounds tested on DU-145 (assay: Growth inhibition of human DU145 cells assessed as cell growth at 10 uM incubated for 48 hrs by sulforhodamine B assay relative to control). Settings: DU-145, 48 h, read-out: Activity.
Assay type: functional

SMILES	growth at 10 µM [%]
COc1cc(Cl)cc(-c2nn(-c3cccc(NC(=O)Nc4cccc(C(F)(F)F)c4)c3)cc2-c2ccncc2)c1	15.9

Each compound was assayed on MDA-MB-468 (assay: Growth inhibition of human MDA-MB-468 cells assessed as cell growth at 10 uM incubated for 48 hrs by sulforhodamine B assay relative to control). Settings: MDA-MB-468, 48 h, read-out: Activity.
Assay type: functional

SMILES	growth at 10 µM [%]
COc1cc(Cl)cc(-c2nn(-c3cccc(NC(=O)Nc4cccc(C(F)(F)F)c4)c3)cc2-c2ccncc2)c1	6.89

The compounds below were run on NCI/ADR-RES (assay: Growth inhibition of human NCI/ADR-RES cells incubated for 48 hrs by sulforhodamine B assay). Settings: read-out: GI50.
Assay type: functional, cell-based

SMILES	GI50 [µM]
COc1cc(Cl)cc(-c2nn(-c3cccc(NC(=O)Nc4cccc(C(F)(F)F)c4)c3)cc2-c2ccncc2)c1	1.65

Same assay, conditions: read-out: LC50 (the source's name)

SMILES	CC50 [µM]
COc1cc(Cl)cc(-c2nn(-c3cccc(NC(=O)Nc4cccc(C(F)(F)F)c4)c3)cc2-c2ccncc2)c1	> 100

Same assay, conditions: read-out: TGI

SMILES	TGI [µM]
COc1cc(Cl)cc(-c2nn(-c3cccc(NC(=O)Nc4cccc(C(F)(F)F)c4)c3)cc2-c2ccncc2)c1	75.1

Same assay, conditions: read-out: pGI50 (converted)

SMILES	GI50 [µM]
COc1cc(Cl)cc(-c2nn(-c3cccc(NC(=O)Nc4cccc(C(F)(F)F)c4)c3)cc2-c2ccncc2)c1	1.66

Same assay, conditions: read-out: pLC50 (the source's name) (converted)

SMILES	CC50 [µM]
COc1cc(Cl)cc(-c2nn(-c3cccc(NC(=O)Nc4cccc(C(F)(F)F)c4)c3)cc2-c2ccncc2)c1	> 100

Same assay, conditions: read-out: pTGI (converted)

SMILES	TGI [µM]
COc1cc(Cl)cc(-c2nn(-c3cccc(NC(=O)Nc4cccc(C(F)(F)F)c4)c3)cc2-c2ccncc2)c1	7.76

What follows are compounds tested on LOX IMVI (assay: Growth inhibition of human LOXIMVI cells assessed as cell growth at 0.01 uM incubated for 48 hrs by sulforhodamine B assay relative to control). Settings: read-out: Activity.
Assay type: functional

SMILES	growth at 0.01 µM [%]
COc1cc(Cl)cc(-c2nn(-c3cccc(NC(=O)Nc4cccc(C(F)(F)F)c4)c3)cc2-c2ccncc2)c1	96

These compounds were tested on MOLT-4 (assay: Growth inhibition of human MOLT4 cells assessed as cell growth at 0.1 uM incubated for 48 hrs by sulforhodamine B assay relative to control). Settings: MOLT-4, 48 h, read-out: Activity.
Assay type: functional

SMILES	growth at 0.1 µM [%]
COc1cc(Cl)cc(-c2nn(-c3cccc(NC(=O)Nc4cccc(C(F)(F)F)c4)c3)cc2-c2ccncc2)c1	55

These compounds were tested on SF-295 (assay: Growth inhibition of human SF295 cells assessed as cell growth at 0.1 uM incubated for 48 hrs by sulforhodamine B assay relative to control). Settings: SF-295, 48 h, read-out: Activity.
Assay type: functional

SMILES	growth at 0.1 µM [%]
COc1cc(Cl)cc(-c2nn(-c3cccc(NC(=O)Nc4cccc(C(F)(F)F)c4)c3)cc2-c2ccncc2)c1	57

The compounds below were run on SK-MEL-5 (assay: Growth inhibition of human SK-MEL-5 cells assessed as cell growth at 0.1 uM incubated for 48 hrs by sulforhodamine B assay relative to control). Settings: SK-MEL-5, 48 h, read-out: Activity.
Assay type: functional

SMILES	growth at 0.1 µM [%]
COc1cc(Cl)cc(-c2nn(-c3cccc(NC(=O)Nc4cccc(C(F)(F)F)c4)c3)cc2-c2ccncc2)c1	98

Each compound was assayed on PC-3 (assay: Growth inhibition of human PC3 cells assessed as cell growth at 0.1 uM incubated for 48 hrs by sulforhodamine B assay relative to control). Settings: PC-3, 48 h, read-out: Activity.
Assay type: functional

SMILES	growth at 0.1 µM [%]
COc1cc(Cl)cc(-c2nn(-c3cccc(NC(=O)Nc4cccc(C(F)(F)F)c4)c3)cc2-c2ccncc2)c1	57

What follows are compounds tested on SK-MEL-5 (assay: Growth inhibition of human SK-MEL-5 cells assessed as cell growth at 1 uM incubated for 48 hrs by sulforhodamine B assay relative to control). Settings: SK-MEL-5, 48 h, read-out: Activity.
Assay type: functional

SMILES	growth at 1 µM [%]
COc1cc(Cl)cc(-c2nn(-c3cccc(NC(=O)Nc4cccc(C(F)(F)F)c4)c3)cc2-c2ccncc2)c1	80

What follows are compounds tested on OVCAR-3 (assay: Growth inhibition of human OVCAR3 cells assessed as cell growth at 1 uM incubated for 48 hrs by sulforhodamine B assay relative to control). Settings: OVCAR-3, 48 h, read-out: Activity.
Assay type: functional

SMILES	growth at 1 µM [%]
COc1cc(Cl)cc(-c2nn(-c3cccc(NC(=O)Nc4cccc(C(F)(F)F)c4)c3)cc2-c2ccncc2)c1	38

Each compound was assayed on OVCAR-5 (assay: Growth inhibition of human OVCAR5 cells assessed as cell growth at 1 uM incubated for 48 hrs by sulforhodamine B assay relative to control). Settings: OVCAR-5, 48 h, read-out: Activity.
Assay type: functional

SMILES	growth at 1 µM [%]
COc1cc(Cl)cc(-c2nn(-c3cccc(NC(=O)Nc4cccc(C(F)(F)F)c4)c3)cc2-c2ccncc2)c1	88

The compounds below were run on A549 (assay: Growth inhibition of human A549/ATCC cells assessed as cell growth at 100 uM incubated for 48 hrs by sulforhodamine B assay relative to control). Settings: A549, 48 h, read-out: Activity.
Assay type: functional

SMILES	growth at 100 µM [%]
COc1cc(Cl)cc(-c2nn(-c3cccc(NC(=O)Nc4cccc(C(F)(F)F)c4)c3)cc2-c2ccncc2)c1	-24

These compounds were tested on HT-29 (assay: Growth inhibition of human HT-29 cells assessed as cell growth at 100 uM incubated for 48 hrs by sulforhodamine B assay relative to control). Settings: HT-29, 48 h, read-out: Activity.
Assay type: functional

SMILES	growth at 100 µM [%]
COc1cc(Cl)cc(-c2nn(-c3cccc(NC(=O)Nc4cccc(C(F)(F)F)c4)c3)cc2-c2ccncc2)c1	-97

The compounds below were run on DU-145 (assay: Growth inhibition of human DU145 cells assessed as cell growth at 100 uM incubated for 48 hrs by sulforhodamine B assay relative to control). Settings: DU-145, 48 h, read-out: Activity.
Assay type: functional

SMILES	growth at 100 µM [%]
COc1cc(Cl)cc(-c2nn(-c3cccc(NC(=O)Nc4cccc(C(F)(F)F)c4)c3)cc2-c2ccncc2)c1	7
